Results published in ChEMBL document CHEMBL1201862, “PubChem BioAssay data set” (2004).
One block for each molecule: values may come before it. Activity calls are given as the source filed them.

Columns and labels:
Ion channel NompC = Ion channel NompC (Danio rerio, UniProt Q7T1G6); experiment: Dose response cell-based high-throughput screening assay for agonists of the transient receptor potential channel N1 (TRPN1). [Related pubchem assays (depositor defined):AID1424, AID1448]; type: functional
Mucolipin-3 = Mucolipin-3 (Homo sapiens, UniProt Q8TDD5); experiment: Fluorescence counterscreen assay for […] agonists: dose response cell-based high-throughput screening assay to identify agonists of the transient receptor potential channel ML3 (TRPML3). [Related pubchem assays: 1424, 1448 ]; type: functional
[1] = target: Intestinal-type alkaline phosphatase (Mus musculus, UniProt P24822); experiment: PubChem AID 488785; type: functional
[2] = inhibitors of intracellular T. cruzi replication, confirmation, NIH3T3 host cells, beta-gal luminescence (AID 2044); type: functional, cell-based;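 note: intracellular parasites grown in NIH/3T3 mouse fibroblasts as host cells; luminescent beta-galactosidase reporter signal from transgenic T. cruzi replicating inside host cells; inhibitors lower the luminescence signal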
[3] = target: Intestinal-type alkaline phosphatase (Homo sapiens, UniProt P09923); experiment: activation of human intestinal alkaline phosphatase – biochemical, dose response (AID 488873); type: functional
[4] = target: T1, Alkaline phosphatase, tissue-nonspecific isozyme (Homo sapiens, UniProt P05186)
T1 sequence (P05186 whole entry): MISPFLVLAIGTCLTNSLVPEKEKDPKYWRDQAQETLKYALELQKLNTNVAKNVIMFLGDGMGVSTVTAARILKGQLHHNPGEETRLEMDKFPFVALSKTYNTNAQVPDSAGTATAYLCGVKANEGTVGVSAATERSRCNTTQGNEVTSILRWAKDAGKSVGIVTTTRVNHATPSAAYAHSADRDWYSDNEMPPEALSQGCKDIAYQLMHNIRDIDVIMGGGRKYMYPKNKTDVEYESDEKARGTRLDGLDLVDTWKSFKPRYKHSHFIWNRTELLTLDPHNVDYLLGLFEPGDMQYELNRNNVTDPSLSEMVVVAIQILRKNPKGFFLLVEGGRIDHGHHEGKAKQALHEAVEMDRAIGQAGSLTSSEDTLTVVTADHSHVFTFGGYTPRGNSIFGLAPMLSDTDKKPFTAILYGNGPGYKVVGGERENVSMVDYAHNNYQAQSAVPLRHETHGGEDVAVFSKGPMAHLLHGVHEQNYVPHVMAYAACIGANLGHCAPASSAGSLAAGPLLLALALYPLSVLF

[5] = target: T1, Alkaline phosphatase, tissue-nonspecific isozyme; experiment: TNAP enzyme inhibition by screening hits, dose response, selectivity assay for mouse IAP inhibitor project, biochemical, human TNAP, uHTS hits (AID 488906); type: functional
[6] = cytotoxicity toward NIH3T3 fibroblasts, dose response, counter-screen, cell-based, ATP luminescence, mouse fibroblasts (AID 2010); type: functional;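 note: cells exposed to compound for about 90 hours before reading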
[7] = target: T2, Short transient receptor potential channel 4 (Mus musculus, UniProt Q9QUQ5); experiment: mouse TRPC4 channel activators, dose response, cell-based, HEK293 TRPC4/mu-opioid, Fluo-4 calcium (AID 434937); type: functional
T2 sequence (Q9QUQ5 whole entry): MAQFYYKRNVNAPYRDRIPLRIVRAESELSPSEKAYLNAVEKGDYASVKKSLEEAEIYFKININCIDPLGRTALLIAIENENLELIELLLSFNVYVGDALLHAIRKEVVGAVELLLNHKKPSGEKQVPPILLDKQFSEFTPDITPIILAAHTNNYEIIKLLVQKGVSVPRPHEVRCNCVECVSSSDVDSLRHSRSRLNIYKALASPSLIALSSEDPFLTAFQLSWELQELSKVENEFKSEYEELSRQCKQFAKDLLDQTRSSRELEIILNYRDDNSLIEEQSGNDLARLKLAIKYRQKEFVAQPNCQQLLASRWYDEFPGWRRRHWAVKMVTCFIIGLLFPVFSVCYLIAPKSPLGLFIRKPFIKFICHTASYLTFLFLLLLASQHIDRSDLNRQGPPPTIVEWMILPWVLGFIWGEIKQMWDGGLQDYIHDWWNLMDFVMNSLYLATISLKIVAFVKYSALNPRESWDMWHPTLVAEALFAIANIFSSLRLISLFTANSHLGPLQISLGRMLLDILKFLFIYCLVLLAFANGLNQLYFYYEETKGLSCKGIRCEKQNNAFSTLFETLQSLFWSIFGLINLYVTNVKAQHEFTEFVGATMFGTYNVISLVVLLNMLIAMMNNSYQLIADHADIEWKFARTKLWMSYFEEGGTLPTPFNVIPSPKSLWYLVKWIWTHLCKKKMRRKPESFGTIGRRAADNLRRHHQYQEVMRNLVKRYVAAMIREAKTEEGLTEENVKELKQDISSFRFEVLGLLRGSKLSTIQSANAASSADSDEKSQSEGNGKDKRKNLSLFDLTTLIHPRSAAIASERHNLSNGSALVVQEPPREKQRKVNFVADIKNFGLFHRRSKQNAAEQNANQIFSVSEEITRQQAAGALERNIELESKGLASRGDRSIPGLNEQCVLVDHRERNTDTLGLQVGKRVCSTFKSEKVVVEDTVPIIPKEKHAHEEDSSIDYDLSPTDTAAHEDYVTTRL

Hexokinase-1 = target: T3, Hexokinase-1 (Homo sapiens, UniProt P19367); experiment: hexokinase 1 activators, dose response, selectivity assay for HKDC1 activator project, biochemical (AID 504762); type: functional
T3 sequence (P19367 whole entry): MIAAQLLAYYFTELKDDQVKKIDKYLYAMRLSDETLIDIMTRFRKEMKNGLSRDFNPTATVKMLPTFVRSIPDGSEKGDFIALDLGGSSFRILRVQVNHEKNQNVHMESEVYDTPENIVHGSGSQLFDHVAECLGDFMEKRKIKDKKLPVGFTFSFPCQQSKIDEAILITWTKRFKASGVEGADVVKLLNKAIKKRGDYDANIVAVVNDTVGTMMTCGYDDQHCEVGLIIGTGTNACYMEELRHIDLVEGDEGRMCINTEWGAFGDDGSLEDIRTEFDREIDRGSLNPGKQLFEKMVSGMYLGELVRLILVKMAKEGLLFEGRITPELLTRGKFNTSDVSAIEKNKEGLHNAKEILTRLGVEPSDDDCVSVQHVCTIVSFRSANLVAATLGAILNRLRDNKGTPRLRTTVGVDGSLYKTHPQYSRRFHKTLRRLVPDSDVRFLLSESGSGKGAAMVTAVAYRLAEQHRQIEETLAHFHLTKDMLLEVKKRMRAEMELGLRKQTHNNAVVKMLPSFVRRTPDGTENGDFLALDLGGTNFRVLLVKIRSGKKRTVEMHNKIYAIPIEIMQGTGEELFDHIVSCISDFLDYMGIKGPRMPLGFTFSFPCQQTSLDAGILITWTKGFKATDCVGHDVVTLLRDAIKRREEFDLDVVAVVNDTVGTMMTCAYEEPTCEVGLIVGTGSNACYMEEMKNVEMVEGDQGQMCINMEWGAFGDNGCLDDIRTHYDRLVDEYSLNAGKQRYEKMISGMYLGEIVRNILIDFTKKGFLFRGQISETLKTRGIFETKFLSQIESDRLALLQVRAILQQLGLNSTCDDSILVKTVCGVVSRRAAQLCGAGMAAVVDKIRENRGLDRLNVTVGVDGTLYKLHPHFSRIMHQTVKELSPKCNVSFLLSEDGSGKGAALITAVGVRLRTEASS

Hexokinase HKDC1 = target: T4, Hexokinase HKDC1 (Homo sapiens, UniProt Q2TB90); experiment: HKDC1 hexokinase activators, dose response, biochemical, W721R variant (AID 504730); type: functional
T4 sequence (Q2TB90 whole entry): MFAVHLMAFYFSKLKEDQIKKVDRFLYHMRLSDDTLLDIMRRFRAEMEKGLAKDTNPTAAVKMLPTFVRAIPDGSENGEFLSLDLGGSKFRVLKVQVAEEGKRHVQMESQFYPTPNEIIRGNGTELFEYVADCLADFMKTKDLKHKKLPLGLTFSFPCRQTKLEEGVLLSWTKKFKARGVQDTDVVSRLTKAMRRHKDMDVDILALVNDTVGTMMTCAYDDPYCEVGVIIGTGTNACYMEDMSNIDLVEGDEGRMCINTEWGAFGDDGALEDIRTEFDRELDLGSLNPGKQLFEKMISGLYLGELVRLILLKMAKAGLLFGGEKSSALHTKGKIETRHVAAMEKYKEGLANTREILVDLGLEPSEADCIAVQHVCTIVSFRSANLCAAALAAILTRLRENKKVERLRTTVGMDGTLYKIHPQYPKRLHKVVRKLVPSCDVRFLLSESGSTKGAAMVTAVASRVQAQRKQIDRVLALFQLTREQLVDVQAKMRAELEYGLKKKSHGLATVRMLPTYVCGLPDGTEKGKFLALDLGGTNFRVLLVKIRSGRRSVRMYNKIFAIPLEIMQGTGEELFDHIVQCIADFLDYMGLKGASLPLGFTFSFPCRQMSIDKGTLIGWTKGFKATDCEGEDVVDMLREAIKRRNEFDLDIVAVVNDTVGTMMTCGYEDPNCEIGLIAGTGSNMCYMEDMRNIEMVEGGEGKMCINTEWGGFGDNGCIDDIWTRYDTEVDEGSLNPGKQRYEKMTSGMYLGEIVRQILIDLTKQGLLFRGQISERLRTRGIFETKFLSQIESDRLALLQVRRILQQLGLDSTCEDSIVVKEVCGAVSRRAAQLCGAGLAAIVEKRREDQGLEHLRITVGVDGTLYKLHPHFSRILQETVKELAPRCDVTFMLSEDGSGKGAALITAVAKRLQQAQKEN

[8] = system: Streptococcus sp. 'group A'; experiment: growth inhibition of control SK(-) GAS strain, dose response, counter-screen for streptokinase expression inhibitor project, luminescence, kanamycin, BacTiterGlo, confirmation (AID 1900); type: functional, organism-based
Streptococcus = experiment: Group A Streptococcus viability loss, dose response, counter-screen for streptokinase expression inhibitor project, luminescence, BacTiterGlo (AID 1915); type: functional, organism-based;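 note: potency for reduction of bacterial viability or growth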
[9] = target: G-protein coupled receptor 55 (Homo sapiens, UniProt Q9Y2T6); experiment: GPR55 antagonists blocking LPI-driven arrestin recruitment, primary screen, imaging, U2OS, beta-arrestin-GFP, LPI agonist (AID 2013); type: functional;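 note: antagonist potency measured as reduced agonist-driven arrestin aggregation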
[10] = target: Protein-tyrosine kinase 2-beta (Homo sapiens, UniProt Q14289);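 note: potency of inhibitors of PYK2 kinase phosphorylation of poly-GT substrate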
[11] = target: T5, E3 ubiquitin-protein ligase XIAP (Homo sapiens, UniProt P98170); experiment: Counter Screen using XIAP-Bir3 for Chemical Antagonists of Bir1/2 domains of IAP-family anti-apoptotic proteins. [Related pubchem assays (depositor defined):AID1018, AID1449, AID1514, AID1638, AID1749, AID1750, AID488957, AID488963]
[12] = target: T5, E3 ubiquitin-protein ligase XIAP; experiment: XIAP antagonists, biochemical, IAP family, fluorescence polarization (AID 1018); type: functional
[13] = MC4R antagonists, dose response, counter-screen for LGR2 antagonist project, cell-based, plate reader, cherry pick (AID 743444); type: functional;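 note: transfected HEK 293 cells stimulated with alpha-MSH peptide; potency of inhibitors of the alpha-MSH evoked signal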
[14] = target: T6, Nuclear receptor subfamily 0 group B member 1 (Homo sapiens, UniProt P51843); type: functional, cell-based;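 note: HEK293T cells transfected with SF-1 and DAX-1 plus StAR promoter luciferase reporter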
T6 sequence (P51843 whole entry): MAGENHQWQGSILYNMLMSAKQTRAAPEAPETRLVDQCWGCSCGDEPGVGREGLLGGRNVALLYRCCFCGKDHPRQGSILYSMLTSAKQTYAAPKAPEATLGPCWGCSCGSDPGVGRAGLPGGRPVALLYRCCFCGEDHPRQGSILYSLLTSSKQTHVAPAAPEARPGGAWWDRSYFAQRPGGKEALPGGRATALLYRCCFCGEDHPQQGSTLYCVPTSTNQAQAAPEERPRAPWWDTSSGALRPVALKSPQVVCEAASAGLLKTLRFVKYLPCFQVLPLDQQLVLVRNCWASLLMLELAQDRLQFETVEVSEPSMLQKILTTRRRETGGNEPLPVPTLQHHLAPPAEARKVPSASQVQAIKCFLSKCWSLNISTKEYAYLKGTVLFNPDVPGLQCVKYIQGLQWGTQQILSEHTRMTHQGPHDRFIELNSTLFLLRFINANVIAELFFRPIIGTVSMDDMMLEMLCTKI

[15] = target: DNA dC->dU-editing enzyme APOBEC-3A (Homo sapiens, UniProt P31941); experiment: Dose Response confirmation of small molecule APOBEC3A DNA Deaminase Inhibitors via a fluorescence-based single-stranded DNA deaminase assay. [Related pubchem assays (depositor defined):AID493011, AID493024]; type: functional
[16] = target: DNA dC->dU-editing enzyme APOBEC-3G (Homo sapiens, UniProt Q9HC16); type: functional;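 note: Dose-response counterscreen measuring inhibition of APOBEC3G DNA deaminase activity, run while confirming APOBEC3A inhibitors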
cells = type: functional, cell-based
[17] = HepG2 cell cytotoxicity, dose response, cytotoxicity control, plate reader, cherry-pick, antagonist series (AID 743416); type: functional, cell-based
[18] = LGR2 antagonists, dose response, cell-based, HEK293, CRE-luciferase reporter, cherry pick, set 2 (AID 743343); type: functional;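 note: transfected cells were stimulated with diluted bursicon conditioned medium after compound addition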

T5 sequence (P98170 whole entry): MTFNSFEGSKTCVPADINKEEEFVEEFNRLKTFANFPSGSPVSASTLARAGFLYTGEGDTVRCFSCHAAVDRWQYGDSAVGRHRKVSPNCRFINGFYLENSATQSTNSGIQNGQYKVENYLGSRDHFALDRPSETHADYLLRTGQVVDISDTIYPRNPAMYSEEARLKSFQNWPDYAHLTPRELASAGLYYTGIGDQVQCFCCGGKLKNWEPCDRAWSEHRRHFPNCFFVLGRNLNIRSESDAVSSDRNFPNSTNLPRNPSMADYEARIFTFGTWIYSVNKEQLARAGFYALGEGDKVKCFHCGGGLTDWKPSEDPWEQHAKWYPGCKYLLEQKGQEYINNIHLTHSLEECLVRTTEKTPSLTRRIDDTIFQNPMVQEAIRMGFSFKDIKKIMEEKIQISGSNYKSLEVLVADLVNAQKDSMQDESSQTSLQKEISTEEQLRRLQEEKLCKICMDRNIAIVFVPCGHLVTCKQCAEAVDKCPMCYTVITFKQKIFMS
Chain of Ion channel NompC (Q7T1G6 whole entry): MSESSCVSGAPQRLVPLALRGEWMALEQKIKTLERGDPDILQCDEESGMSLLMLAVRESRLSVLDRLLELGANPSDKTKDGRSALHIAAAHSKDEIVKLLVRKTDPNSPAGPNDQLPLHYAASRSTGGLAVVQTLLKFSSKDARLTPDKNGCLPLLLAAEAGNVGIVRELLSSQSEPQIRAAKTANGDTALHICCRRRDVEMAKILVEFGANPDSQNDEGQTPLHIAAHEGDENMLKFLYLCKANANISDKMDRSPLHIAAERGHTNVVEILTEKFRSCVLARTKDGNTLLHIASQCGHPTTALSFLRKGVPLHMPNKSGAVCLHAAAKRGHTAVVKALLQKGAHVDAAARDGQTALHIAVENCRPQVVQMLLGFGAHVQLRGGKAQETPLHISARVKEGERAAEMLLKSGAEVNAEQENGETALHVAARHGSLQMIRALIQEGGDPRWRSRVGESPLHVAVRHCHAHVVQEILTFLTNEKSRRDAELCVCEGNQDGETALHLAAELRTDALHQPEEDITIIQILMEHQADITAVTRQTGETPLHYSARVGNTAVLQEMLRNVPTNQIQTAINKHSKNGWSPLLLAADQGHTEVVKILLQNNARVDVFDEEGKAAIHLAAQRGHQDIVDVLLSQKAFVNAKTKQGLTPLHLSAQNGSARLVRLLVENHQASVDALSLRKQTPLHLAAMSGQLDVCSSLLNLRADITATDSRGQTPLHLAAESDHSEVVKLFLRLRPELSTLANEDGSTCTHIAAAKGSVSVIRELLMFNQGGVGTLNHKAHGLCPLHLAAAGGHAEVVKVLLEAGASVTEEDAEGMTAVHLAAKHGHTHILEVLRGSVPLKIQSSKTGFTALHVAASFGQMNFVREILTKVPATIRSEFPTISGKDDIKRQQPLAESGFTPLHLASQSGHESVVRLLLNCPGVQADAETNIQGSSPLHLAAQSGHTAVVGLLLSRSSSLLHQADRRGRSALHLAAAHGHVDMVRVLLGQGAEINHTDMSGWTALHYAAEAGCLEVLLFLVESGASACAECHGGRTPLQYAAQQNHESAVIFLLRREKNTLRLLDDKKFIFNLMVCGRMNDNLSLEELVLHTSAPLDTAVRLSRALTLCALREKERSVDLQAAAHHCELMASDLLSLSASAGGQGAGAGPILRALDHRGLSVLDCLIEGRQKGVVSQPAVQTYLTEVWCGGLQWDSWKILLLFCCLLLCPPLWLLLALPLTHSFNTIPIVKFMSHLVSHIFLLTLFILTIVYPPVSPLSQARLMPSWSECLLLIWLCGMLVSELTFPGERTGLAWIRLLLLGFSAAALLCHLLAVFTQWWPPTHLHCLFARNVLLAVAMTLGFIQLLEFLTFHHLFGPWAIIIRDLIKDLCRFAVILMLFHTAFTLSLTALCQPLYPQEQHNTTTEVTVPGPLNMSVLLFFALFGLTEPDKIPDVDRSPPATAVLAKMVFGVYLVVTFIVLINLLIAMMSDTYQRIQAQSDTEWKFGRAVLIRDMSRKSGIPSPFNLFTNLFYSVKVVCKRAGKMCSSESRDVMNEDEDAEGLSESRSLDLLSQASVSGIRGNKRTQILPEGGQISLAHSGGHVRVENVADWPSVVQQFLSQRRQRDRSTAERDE
Chain of Mucolipin-3 (Q8TDD5 whole entry): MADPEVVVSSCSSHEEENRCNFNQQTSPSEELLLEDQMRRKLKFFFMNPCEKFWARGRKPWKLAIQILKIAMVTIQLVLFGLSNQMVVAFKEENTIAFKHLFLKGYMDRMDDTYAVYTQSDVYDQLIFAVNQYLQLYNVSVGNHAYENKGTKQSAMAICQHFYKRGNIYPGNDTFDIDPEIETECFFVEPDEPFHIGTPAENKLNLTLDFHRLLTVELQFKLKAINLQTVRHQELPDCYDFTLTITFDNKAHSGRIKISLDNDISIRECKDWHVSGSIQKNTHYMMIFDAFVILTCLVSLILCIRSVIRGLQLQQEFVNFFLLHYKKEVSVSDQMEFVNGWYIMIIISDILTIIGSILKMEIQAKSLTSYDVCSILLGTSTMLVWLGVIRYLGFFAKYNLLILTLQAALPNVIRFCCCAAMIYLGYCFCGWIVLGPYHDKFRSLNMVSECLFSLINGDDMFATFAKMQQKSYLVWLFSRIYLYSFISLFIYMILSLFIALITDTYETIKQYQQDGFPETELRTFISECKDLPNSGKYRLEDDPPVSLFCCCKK
Chain of Intestinal-type alkaline phosphatase (Mus musculus, UniProt P24822) (P24822 whole entry): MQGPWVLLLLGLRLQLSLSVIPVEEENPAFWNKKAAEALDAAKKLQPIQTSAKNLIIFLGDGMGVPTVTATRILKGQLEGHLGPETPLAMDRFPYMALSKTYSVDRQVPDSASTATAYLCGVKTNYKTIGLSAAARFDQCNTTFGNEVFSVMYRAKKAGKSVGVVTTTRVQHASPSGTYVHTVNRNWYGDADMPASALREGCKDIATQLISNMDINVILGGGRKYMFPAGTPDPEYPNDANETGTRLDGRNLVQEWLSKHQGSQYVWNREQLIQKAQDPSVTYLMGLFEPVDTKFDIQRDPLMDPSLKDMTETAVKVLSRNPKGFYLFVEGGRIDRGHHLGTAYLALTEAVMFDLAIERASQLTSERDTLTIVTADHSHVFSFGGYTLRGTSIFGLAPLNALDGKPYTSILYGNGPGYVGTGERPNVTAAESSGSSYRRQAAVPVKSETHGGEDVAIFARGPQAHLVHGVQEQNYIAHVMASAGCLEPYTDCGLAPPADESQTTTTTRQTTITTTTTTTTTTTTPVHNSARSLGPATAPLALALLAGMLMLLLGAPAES
Chain of Intestinal-type alkaline phosphatase (Homo sapiens, UniProt P09923) (P09923 whole entry): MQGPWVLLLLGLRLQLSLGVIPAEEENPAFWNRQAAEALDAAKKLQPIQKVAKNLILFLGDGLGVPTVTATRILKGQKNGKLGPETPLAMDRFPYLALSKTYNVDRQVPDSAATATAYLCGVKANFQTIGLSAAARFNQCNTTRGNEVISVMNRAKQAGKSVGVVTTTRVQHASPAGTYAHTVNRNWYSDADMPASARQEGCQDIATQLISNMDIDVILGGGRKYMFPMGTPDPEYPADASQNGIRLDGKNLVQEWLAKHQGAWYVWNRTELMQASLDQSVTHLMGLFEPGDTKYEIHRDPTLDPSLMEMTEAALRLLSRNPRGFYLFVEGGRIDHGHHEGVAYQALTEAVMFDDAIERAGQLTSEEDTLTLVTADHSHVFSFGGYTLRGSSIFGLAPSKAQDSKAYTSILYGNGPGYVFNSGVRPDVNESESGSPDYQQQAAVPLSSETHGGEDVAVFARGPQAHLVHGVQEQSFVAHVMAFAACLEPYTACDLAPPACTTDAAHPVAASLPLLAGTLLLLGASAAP
Chain of Protein-tyrosine kinase 2-beta (Q14289 whole entry): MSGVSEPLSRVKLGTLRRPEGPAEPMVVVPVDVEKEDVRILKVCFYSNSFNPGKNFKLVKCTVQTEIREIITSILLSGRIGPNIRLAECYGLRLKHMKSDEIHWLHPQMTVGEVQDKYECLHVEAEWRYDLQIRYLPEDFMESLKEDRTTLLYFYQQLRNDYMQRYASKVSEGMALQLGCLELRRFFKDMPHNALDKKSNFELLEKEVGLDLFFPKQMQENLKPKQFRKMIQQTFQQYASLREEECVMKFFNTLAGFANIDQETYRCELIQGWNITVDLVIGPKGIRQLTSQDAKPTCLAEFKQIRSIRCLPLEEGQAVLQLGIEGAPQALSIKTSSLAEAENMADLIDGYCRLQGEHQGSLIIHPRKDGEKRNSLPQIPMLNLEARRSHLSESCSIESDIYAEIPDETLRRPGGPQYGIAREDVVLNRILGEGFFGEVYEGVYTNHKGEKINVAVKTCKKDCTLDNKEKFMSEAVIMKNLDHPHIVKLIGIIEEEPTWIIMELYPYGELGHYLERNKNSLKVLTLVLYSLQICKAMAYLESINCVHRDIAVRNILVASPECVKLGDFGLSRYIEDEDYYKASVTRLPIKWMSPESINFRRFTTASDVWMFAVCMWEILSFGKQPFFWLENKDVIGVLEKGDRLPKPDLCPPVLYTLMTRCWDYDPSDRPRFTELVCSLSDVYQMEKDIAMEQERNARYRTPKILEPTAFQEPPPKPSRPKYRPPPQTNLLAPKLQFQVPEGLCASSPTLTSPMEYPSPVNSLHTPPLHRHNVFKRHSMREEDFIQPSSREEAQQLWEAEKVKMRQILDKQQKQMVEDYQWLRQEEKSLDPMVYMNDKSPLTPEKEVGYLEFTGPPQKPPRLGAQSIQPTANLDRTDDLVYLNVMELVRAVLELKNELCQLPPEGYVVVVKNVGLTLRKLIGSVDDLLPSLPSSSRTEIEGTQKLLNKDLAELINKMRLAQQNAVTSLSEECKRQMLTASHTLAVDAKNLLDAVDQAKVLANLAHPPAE
Chain of DNA dC->dU-editing enzyme APOBEC-3A (P31941 whole entry): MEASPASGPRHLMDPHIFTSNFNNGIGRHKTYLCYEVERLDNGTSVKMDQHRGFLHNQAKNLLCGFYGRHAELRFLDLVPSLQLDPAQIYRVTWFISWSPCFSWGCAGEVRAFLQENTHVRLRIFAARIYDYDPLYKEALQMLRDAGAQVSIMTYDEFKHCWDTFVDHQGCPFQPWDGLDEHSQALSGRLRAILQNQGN

IC50 [9]: 1.27 µM (active)
SMILES: CC(=O)Oc1ccc2ccccc2c1C(NC(=O)Cc1ccccc1)c1ccccc1 (stereo not drawn)

IC50 [10]: 12 µM (not active)
IC50 [11]: > 100 µM (inactive)
IC50 [12]: > 100 µM (not active)
SMILES: COc1ccc(OC)c(NS(=O)(=O)Cc2ccccc2)c1

IC50 [11]: > 100 µM (inactive)
IC50 [12]: > 100 µM (not active)
SMILES: CC(C)N(CC#CCC(O)(c1ccccc1)c1ccccc1)CCO

The remaining lines, values behind:

SMILES: CCOc1ccc(N(CC(=O)O)S(=O)(=O)c2ccc(F)cc2)cc1
EC50 (Ion channel NompC): > 29.9 µM (inactive)
EC50 (Mucolipin-3): > 29.9 µM (not active)

SMILES: CCOC(=O)c1ccc(N2CCN(c3ccccc3F)CC2)c(NC(=O)Nc2cccc(OC)c2)c1
IC50 [1]: 6.54 µM (active)
EC50 [2]: 1.39 µM (active)
EC50 [3]: > 100 µM (inactive)
EC50 [4]: > 100 µM (not active)
IC50 [5]: > 100 µM (inactive)
EC50 [6]: > 60 µM (inconclusive)

SMILES: Cc1onc(-c2ccccc2)c1C(=O)NNC(=S)NC(=O)c1ccc(Br)cc1
EC50 [7]: 1.88 µM (active)
EC50 (Hexokinase-1): > 80 µM (inactive)
EC50 (Hexokinase HKDC1): 6.58 µM (active)
EC50 [8]: 0.472 µM (active)
EC50 (Ion channel NompC): 0.604 µM (active)
EC50 (Streptococcus): 1.52 µM (active)
EC50 (Mucolipin-3): 1.03 µM (active)

SMILES: COc1ccc2sc(NC(=O)c3ccco3)nc2c1
AC50 [13]: 8.55 µM (active)
IC50 [14]: > 67.5 µM (inactive)
IC50 [15]: 17.3 µM (active)
IC50 [16]: 10.3 µM (active)
IC50 (cells): > 67.5 µM (inactive)
AC50 [17]: > 52 µM (inactive)
AC50 [18]: 7.49 µM (active)
